We go through 6 compounds from US11236049B2, “Amorphous and crystalline forms of IDO inhibitors” (BRISTOL-MYERS SQUIBB COMPANY, priority 2017, dated 2022).

Data set [1] is classed as physicochemical.
The conditions of data set [2]: for AUC (Mean) / Dissolution Rate (Mean): 150 mg in 250 mL (0.60 mg/mL API equivalent), 37° C.
Description: Microdissolution Microdissolution experiments were conducted in a pIon μDiss Profiler microdissolution instrument (pION μDiss Profiler) with a fiber optic UV monitoring system, as follows: Probes: 2.5 mm probes (5 mm path length) Volume: 15 ml Stirring: 150 rpm Temperature: 37° C. […] The target doses were 150 mg in 250 mL (0.60 mg/mL API equivalent) in FaSSIF (pH 6.5) and FeSSIF (pH 5).
The format of data set [3] is physicochemical. The text has this: There was no evidence of form change, dehydration, or amorphous formation after 8 weeks. There was no change in TGA at 8 weeks in all samples.
The source holds these as a separate data set.

A short description of data set [4]: Solid state stability of Compound 1 free base Form 4. The class given is physicochemical. The text has this: The results of those experiments are in the table, below.
Data set [5] in a line: pH solubility of Compound 1 MSA Salt Form 1. The class given is physicochemical. Particulars: 22 °C, aqueous buffer, thermodynamic from solid; from pH solubility profile of MSA Salt Form 1; read-out: Solubility for the free-base. As for the experimental part:
Measurements were taken using an Orion ATI Model 370 pH meter. […] To each vial was added 5 mL of various aqueous acidic and basic solutions. Each vial was stoppered and vortexed and sonicated to mix well. The pH of each sample was recorded. […] After 24 hours of stirring, the pH of each sample (as a suspension) was recorded. Suspensions were filtered with 0.2 micron Acrodisc syringe filters. The clear filtrates were collected and vortexed to mix well pH of each filtrated was recorded. pH of suspension and filtrate were nearly identical. A 1.0 mL aliquot of each of the filtrates 25-fold using 50% acetonitrile/50% Milli-Q water, q.w. each flask to 25 mL. […] Samples were assayed using the following HPLC method: Column: […] Mobile phase Solvent A: Water w/0.05% TFA • Solvent B: Acetonitrile w/0.05% TFA […] Column temperature: Ambient RT Detector Wavelength: 250 nm […] Working Concentration: […] Added 20 mL of 100% acetonitrile to the vial. Stoppered, vortexed, and sonicated the vial. […] Transferred the suspension to a 250 mL glass volumetric flask, and washed out the glass vial with 4×20 mL 50% acetonitrile/50% Milli-Q water, transferring each wash into the volumetric flask. All solids dissolved. Q.S. the volumetric flask to 250 mL final volume using 50% acetonitrile/50% Milli Q water, shake to give standard solution at 101.5 mcg/mL.

Setting [6] is: 25° C./60% relative humidity, 4-week.
Setting [7] is: 40° C./75% relative humidity (closed), 4-week.
Where [8] appears, read: 40° C./75% relative humidity (open), 4-week.
The mark [9] stands for this setting: High intensity light (HIL), 4-week.
Setting [10] is: solid state stress conditions tested.

The structures appear in SMILES notation. Read-outs that look alike come from different tables or passages of the source.

As to `CS(=O)(=O)O.C[C@@H](C(=O)Nc1ccc(Cl)cc1)[C@H]1CC[C@@H](c2ccnc3ccc(F)cc32)CC1` [Amorphous Compound 1 MSA, (R)-N-(4-chlorophenyl)-2-((1S,4S)-4-(6-fluoroquinolin-4-yl)cyclohexyl)propanamide methanesulfonate], the form change entry is on record as “recrystallized to Compound 1 MSA Salt Form 1” in data set [1] (heat stressing at 60° C. (Example 8A)) and “converted to Compound 1 MSA Salt Form 1” in data set [1] (heat stressing at 60° C. after 9 days).

Take `C[C@@H](C(=O)Nc1ccc(Cl)cc1)[C@H]1CC[C@@H](c2ccnc3ccc(F)cc32)CC1` [Compound 1 Free Base Amorphous, (R)-N-(4-chlorophenyl)-2-((1S,4S)-4-(6-fluoroquinolin-4-yl)cyclohexyl)propanamide]: the “form change on heating” value in data set [1] (heated between 67° C. and 150° C.) is on record as “No crystallization was observed”.

Turning to `C[C@@H](C(=O)Nc1ccc(Cl)cc1)C1CCC(c2ccnc3ccc(F)cc23)CC1.O` (stereo partly drawn) [Compound 1 Free Base monohydrate Form 2, (R)-N-(4-chlorophenyl)-2-((1S,4S)-4-(6-fluoroquinolin-4-yl)cyclohexyl)propanamide monohydrate], the rate of dissolution in data set [2] (Example 16, FeSSIF) was 23 µg/mL/min. Besides, the “form change on heating” value in data set [1] (heated for ˜2 hours) is reported as “no form change by XRPD”; in data set [1] (˜79 to 80° C. for 1 day or ˜75° C. under nitrogen gas flow for ˜20 hours), “partial conversion to other crystalline forms”. Also, the behaviour on heating result in data set [1] (heating to ˜125° C.) is reported as “liquefy”. Besides, in data set [1] (overnight hold at 0% RH), the “form change on dehydration” value is “converted to an unstable form”. In data set [3], the time chemically stable is “at least 13.5 weeks”. The Area % stood at 99.90% Area % in data set [3] (setting [6]); 99.90% Area % in data set [3] (25° C./60% relative humidity, 8-week); 99.73% Area % in data set [3] (25° C./60% relative humidity, 13.5 week); 99.90% Area % in data set [3] (setting [7]); 99.90% Area % in data set [3] (40° C./75% relative humidity (closed), 8-week); 99.62% Area % in data set [3] (40° C./75% relative humidity (closed), 13.5 week). Moreover, the Area % worked out at 99.90% Area % in data set [3] (setting [8]); 99.90% Area % in data set [3] (40° C./75% relative humidity (open), 8-week); 99.63% Area % in data set [3] (40° C./75% relative humidity (open), 13.5 week); 99.90% Area % in data set [3] (50° C., 4-week); 99.04% Area % in data set [3] (50° C., 8-week); 99.79% Area % in data set [3] (50° C., 13.5 week). Besides, the Area % in data set [3] (setting [9]) came out at 99.1% Area %; in data set [3] (RT/RL (room temperature, room light), 4-week) it was 99.90% Area %; in data set [3] (RT/RL (room temperature, room light), 8-week), 99.90% Area %; in data set [3] (RT/RL (room temperature, room light), 13.5 week) it was 99.78% Area %. Further, in data set [3] (after 8 weeks), the “evidence of form change, dehydration, or amorphous formation” value is given as “no evidence”. The “changes in PXRD” value in data set [3] (at 4 weeks or 8 weeks in all samples) is given as “No changes”. Also, in data set [3] (at 8 weeks in all samples), the “change in TGA” value is “no change”.

For the compound `CS(=O)(=O)O.C[C@@H](C(=O)Nc1ccc(Cl)cc1)[C@H]1CC[C@@H](c2ccnc3ccc(F)cc32)CC1.O` [Compound 1 MSA salt monohydrate Form 2, (R)-N-(4-chlorophenyl)-2-((1S,4S)-4-(6-fluoroquinolin-4-yl)cyclohexyl)propanamide methanesulfonic acid salt monohydrate], the “dissolution rate compared with Compound 1 MSA Salt Form 1” value in data set [2] (Example 15, FaSSIF, statistically significant difference) is reported as “slightly faster”. Further, the “AUC (Mean)” value is 14315.281 µg·min/mL in data set [2] (FaSSIF (pH 6.5)) and 50014.687 µg·min/mL in data set [2] (FeSSIF (pH 5)). In addition, the “Dissolution Rate (Mean)” value in data set [2] (FaSSIF (pH 6.5)) is 4.449 µg/mL/min; in data set [2] (FeSSIF (pH 5)) it was 47.996 µg/mL/min. Besides, the “Peak Solubility (Mean)” value was found to be 287.395 µg/mL in data set [2] (pH 5) and 91.325 µg/mL in data set [2] (pH 6.5). The form change result in data set [1] (stressing at 75% relative humidity at 40 C for 6 days) was “converts to Compound 1 MSA Salt Form 1 and Compound 1 MSA Salt monohydrate form 2”.

As for `C[C@@H](C(=O)Nc1ccc(Cl)cc1)[C@H]1CC[C@@H](c2ccnc3ccc(F)cc32)CC1` [Compound 1 free base Form 4, (R)-N-(4-chlorophenyl)-2-((1S,4S)-4-(6-fluoroquinolin-4-yl)cyclohexyl)propanamide], the form change entry in data set [1] (melt/quench experiment, XRPD showed no evidence of crystalline material) is on record as “resulted in a glass with a few fine, birefringent acicular particles”. The Area % turned out to be 99.78% Area % in data set [4] (25° C./60% relative humidity, 2-week); 99.77% Area % in data set [4] (setting [6]); 99.78% Area % in data set [4] (40° C./75% relative humidity (closed), 2-week); 99.71 Area % in data set [4] (setting [7]); 99.79% Area % in data set [4] (40° C./75% relative humidity (open), 2-week); 98.46% Area % in data set [4] (setting [8]). In addition, the Area % in data set [4] (50° C., 2-week) is given as 99.68% Area %; in data set [4] (50° C., 4-week) it was 99.74% Area %; in data set [4] (High intensity light (HIL), 2-week), 99.77% Area %; in data set [4] (setting [9]), 99.58% Area %; in data set [4] (RT/RL (room temperature/room light), 2-week), 99.75% Area %; in data set [4] (RT/RL (room temperature/room light), 4-week) it was 99.70% Area %. For the same compound, the time chemically stable in data set [4] (setting [10]) is “at least 4 weeks”. Moreover, the “time for which no changes were observed” value in data set [4] (setting [10]) is on record as “at least 2 weeks”.

Consider `C[C@@H](C(=O)Nc1ccc(Cl)cc1)[C@H]1CC[C@@H](c2ccnc3ccc(F)cc32)CC1` [Compound 1, (R)-N-(4-chlorophenyl)-2-((1S,4S)-4-(6-fluoroquinolin-4-yl)cyclohexyl)propanamide], for which, in data set [5], the solubility (usually how much of the substance goes into solution per volume) at 24 h was 1 to 2 µg/mL.
